Results as given in paper PMC7614683, “A small molecule PI3Kα activator for cardioprotection and neuroregeneration” (Nature, 2023).

Assays:
Format in all cases: cell-based, mouse
PI3Kα-KO MEFs = test: pAKT S473 western blot, PI3Kα-KO MEFs; settings: 15 min
Procedure: Unless otherwise indicated, western blotting was performed with ECL detection. For time course studies, A549 cells were seeded at 250,000 cells per well in 6-well plates in RPMI (10% FBS + 1 mM Na-Pyruvate + 1% P/S) and allowed to adhere overnight. The next day they were serum-starved for 4 h prior to treatment with 100 nM insulin or 5 μM 1938, for the indicated time (5 min to 48 h) at 37°C, 5% CO2. For 1938 titration assays in MEFs, cells were seeded at 150,000 cells per well in 6-well plates and allowed to adhere overnight. The next day they were serum-starved for 4 h prior to treatment with insulin (1 μM), 1938 (0.2 to 30 μM, final DMSO concentration of 1.5%) or inhibitors (final DMSO concentration of ≤1.5%) for 15 min at 37°C, 5% CO2. Cells were washed twice with cold PBS and lysed using cold RIPA buffer (25 mM Tris.HCl pH 7.6, 150 mM NaCl, 1% NP-40, 1% sodium deoxycholate, 0.1% SDS supplemented with protease/phosphatase inhibitor cocktail from Merck). To remove cell debris, homogenates were spun at 13,000 rpm for 15 min at 4°C and the supernatant fraction recovered. Protein concentration was determined by colorimetric assay (BCA assay, Promega). Protein extracts were resolved by SDS-PAGE, transferred to nitrocellulose membranes, and incubated overnight at 4°C with specific antibodies as follows: anti-vinculin (Sigma #V9131) and the following antibodies from Cell Signaling Technology (CST): pAKT-S473 (CST #9271), pS6-S240/244 (CST #2215), pPRAS40-T246 (CST #2640) and total S6 (CST #2317). Primary ntibodies were used at 1:1000 dilution except anti-vinculin (1:10000). Secondary antibodies are also from Cell Signalling Technology: Anti rabbit IgG, HRP linked Antibody (CST #7074S), Anti mouse IgG, HRP linked Antibody (CST #7076S). Raw and uncropped blots are shown in Supplementary Fig. 1.

PI3Kα-WT MEFs [1] = test: Cell cycle progression by EdU staining, PI3Kα-WT MEFs; settings: 24h; BYL719 as co-treatment with 1938
Procedure: The Click-IT EdU protocol was used according to manufacturer instructions (Sigma-Aldrich #BCK-FC488-50). Briefly, MEFs were seeded at 50,000 cells per well in 6-well plates in DMEM supplemented with 10% FBS and 1% P/S, and allowed to attach overnight. The next day, cells were serum-starved for 5 h prior to compound addition for 24 h in fresh serum-free DMEM. Cells were then pulsed for 3 h with 10 μM EdU, followed by collection by trypsinization and fixation with 3.7% FA in PBS for 15 min in the dark, washed in 3% BSA and permeabilized in 1x saponin-based permeabilization buffer for 20 min in the dark. EdU was then detected using the FAM-azide assay cocktail for 30 min in the dark. Cells were washed twice in 1x saponin-based permeabilization buffer followed by analysis with flow cytometer (Novocyte Advanteon flow cytometer, Agilent). Gating strategy for flow cytometry is shown in Supplementary Fig. 2.

PI3Kα-WT MEFs [2] = test: Cell number by crystal violet staining, PI3Kα-WT MEFs; settings: 24h
Procedure: MEFs were seeded at 5000 cells per well in 96-well plates in DMEM supplemented with 10% FBS and 1% P/S, and allowed to attach overnight. The next day, cells were serum-starved for 5 h prior to compound addition in fresh serum-free DMEM. After different time points, cells were rapidly washed with distilled H2O before fixed and stained in a solution of 0.5% crystal violet (Sigma-Aldrich #C0775) in 20% methanol (v:v) as described. Briefly, after 20 min incubation at room temperature on a rocking platform, fixed and stained cells were washed 3 times with distilled H2O and plates air-dried overnight. 200 μl methanol was next added to each well and the plates were incubated at room temperature for 20 min on a bench rocker, followed by measurement of optical density at 570 with a plate reader.

With `CCN1CCN(c2ccc(Nc3cc(Nc4cccc5c4N(C(C)=O)CC5)ccn3)cc2)CC1` [Compound 1938] the “pAKT^S473 induction” value (PI3Kα-KO MEFs) was “no pAKT^S473 signal”, the “cell cycle progression (EdU incorporation)” value (PI3Kα-WT MEFs [1]) was “induced cell cycle progression” and the “cell number (crystal violet staining)” value (PI3Kα-WT MEFs [2]) was “increase in cell number”.
With “insulin: insulin, canonical activator of PI3Kα, used as positive control” the “pAKT^S473 induction” value (PI3Kα-KO MEFs) was “still respond to insulin”, the “cell cycle progression (EdU incorporation)” value (PI3Kα-WT MEFs [1]) was “did not induce cell cycle progression” and the “cell number (crystal violet staining)” value (PI3Kα-WT MEFs [2]) was “did not induce cell cycle progression and an increase in cell number”.
